Source: patent US5200329A, “Method of hydroxylating 3-[(4,7-dichlorobenzoxazol-2-yl)methyl]amino-5-ethyl-6-methyl-2-(1H)-pyr idinone by incubation with liver slices” (Merck & Co., Inc., priority 1992, dated 1993)

Experiments:
[1] = molecular target: T1, recombinant HIV reverse transcriptase (HIV RTR) (Human immunodeficiency virus type 1 group M subtype B, UniProt P04585); test: Reverse Transcriptase Assay (incorporation of tritiated deoxyguanosine monophosphate into acid-precipitable cDNA); type: biochemical; details: poly r(C).oligo d(G)12-18 and dGTP at about Km; 37° C., 45 minutes
T1 construct: recombinant HIV reverse transcriptase (HIV RTR)
Description: The assay measures the incorporation of tritiated deoxyguanosine monophosphate by recombinant HIV reverse transcriptase (HIV RTR) (or other RT) into acid-precipitable cDNA at the Km values of dGTP and poly r(C).oligo d(G)12-18.
Thirty uL of a reaction mixture containing equal volumes of: 500 mM Tris.HCl (pH 8.2), 300 mM MgCl2, 1200 mM KCl, 10 mM DTT, 400 μg/mL poly r(c).oligo d(G) [prepared by dissolving 1.5 mg (25 U) poly r(C).oligo d(G) in 1.5 ml sterile distilled H2 O and diluting to 400 μg/ml], 0.1 μCi/μl [^3 H] dGTP, 160 μM dGTP, was added to 10 μl sterile distilled H2 O, and 2.5 μl of potential inhibitor. An aliquot of 10 μL of 5 nM purified HIV RTR was added to initiate thereaction. The mixture was incubated at 37° C. for 45 minutes.
After incubation is complete, the tubes were cooled in ice for 5 minutes. Ice-cold 13% TCA containing 10 mM NaPPi (200 μl) are added and the mixture incubated on ice for 30 minutes. The precipitated cDNA is removed by filtration using presoaked glass filters [TCA, NaPPi ]. The precipitate is then washed with 1N HCl, 10 mM NaPPi.
The filter discs are then counted in a scintillation counter.
Under these conditions [dGTP] and poly r(C).oligo d(G)12-18 each are approximately equal to the appropriate Km value. Approximately 5-6,000 cpm of [^3 H] GMP are incorporated into acid-precipitable material. The RT reaction is concentration- and time-dependent. […] The calculated IC50 value for the compounds (Ia) and (Ib) of this incertion are as follows: […]

[2] = Incubation With Human Liver Slices (metabolite formation by HPLC); type: in vitro ADME; details: 2.85 μmol compound (II), 1.25 g wet weight liver slices (donor), Williams' Medium E, 37° C., four hours
Description: Compound (II) (2.85 μmol) was incubated with liver slices (1.25 g wet weight) from a human donor in 20 ml of Williams' Medium E at 37° C. under an atmosphere of 5% CO2 in air for four hours. The metabolites were extracted into ethyl acetate followed by evaporation of the solvent. The residue was reconstituted in methanol and compared on HPLC with an extract of rat liver slice incubation of compound (II). The HPLC effluents were monitored by a UV-diode array detector, and fractionated for liquid scintillation spectrophotometry.

Structure (SMILES)	IC50 [1] [nM]	formation of metabolites indicated by HPLC comparisons of UV and radioactivity profiles [2]
CCc1cc(NCc2nc3c(Cl)ccc(Cl)c3o2)c(=O)[nH]c1CO [Ib, 3-[(4,7-dichlorobenzoxazole-2-yl)methylamino]-5-ethyl-6-hydroxymethylpyridi n-2(1H)-one]	14	
Cc1[nH]c(=O)c(NCc2nc3c(Cl)ccc(Cl)c3o2)cc1C(C)O (racemic) [Ia, 3-[(4,7-dichlorobenzoxazol-2-yl)methylamino]-5-(1-hydroxyethyl)-6-methylpyridin-2(1H)-one]	1050	
CCc1cc(NCc2nc3c(Cl)ccc(Cl)c3o2)c(O)nc1C [Compound II, 3-[(4,7-dichlorobenzoxazol-2-yl)-methyl]amino-5-ethyl-6-methyl-2(1H)-pyridinone]	20	formation of Ia and Ib in the human liver slices incubation
